From ChEMBL document CHEMBL1201862, “PubChem BioAssay data set” (2004)
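Five concentrations, 48 hours, 96-well plates. GI50 marks 50% less growth.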 Calls of active or inactive are those of the source. Cut-off read from the data, not from the text of the source: active = GI50 up to about 1.1 µM and inactive = higher.

How the values were obtained:
Test in all cases: NCI tumour cell line growth inhibition, 48 h
[1] = system: T47D
[2] = system: SF-539
[3] = system: UACC-257
[4] = system: SK-MEL-2
[5] = system: SK-OV-3
[6] = system: ACHN
[7] = system: U-251
[8] = system: MDA-MB-435
[9] = system: SF-268
[10] = system: UACC-62
[11] = system: PC-3
[12] = system: IGROV-1
[13] = system: HOP-92
[14] = system: NCI-H460
[15] = system: MDA-MB-231

Row | SMILES | GI50 [1] | GI50 [2] | GI50 [3] | GI50 [4] | GI50 [5] | GI50 [6] | GI50 [7] | GI50 [8] | GI50 [9] | GI50 [10] | GI50 [11] | GI50 [12] | GI50 [13] | GI50 [14] | GI50 [15]
1 | CC(=O)N(C)c1ccc(Nc2ccnc3ccc4nn(C)nc4c23)cc1 | 20.1 µM (inactive) | 19.2 µM (inactive) | 21.7 µM (inactive) | 17.9 µM (inactive) | 22.6 µM (inactive) | 13.7 µM (inactive) | 33.5 µM (inactive) | 39.3 µM (inactive) | 24.8 µM (inactive) | 16.1 µM (inactive) | 26.9 µM (inactive) | – | – | – | –
2 | CC(=NNC(=S)Nc1ccccc1C)c1cccc(C(C)=NNC(=S)Nc2ccccc2C)n1 | > 100 µM (inactive) | 6.68 µM (inactive) | 27.6 µM (inactive) | 74.3 µM (inactive) | > 100 µM (inactive) | 4.15 µM (inactive) | 34.4 µM (inactive) | 60.4 µM (inactive) | 5.81 µM (inactive) | 45.1 µM (inactive) | 32.1 µM (inactive) | 26.3 µM (inactive) | 11.4 µM (inactive) | 15.3 µM (inactive) | –
3 | CC(=O)/C(=C/NC(=S)Nc1ccc(Cl)c(Cl)c1)C(=O)Nc1ccccc1C | 4.65 µM (inactive) | 14.5 µM (inactive) | 31.7 µM (inactive) | 28 µM (inactive) | 30.9 µM (inactive) | 32.6 µM (inactive) | 33 µM (inactive) | 28.3 µM (inactive) | 34.5 µM (inactive) | 19 µM (inactive) | – | 27.4 µM (inactive) | 22 µM (inactive) | 38.5 µM (inactive) | 27.8 µM (inactive)
4 | COc1ccc(C2=C(OC(C)=O)c3cccn3-c3ccccc3S2)cc1 | 5.9 µM (inactive) | – | > 10 µM (inactive) | – | 2.65 µM (inactive) | – | – | 0.265 µM (active) | > 10 µM (inactive) | 2.9 µM (inactive) | 2.3 µM (inactive) | 4.81 µM (inactive) | 1.58 µM (inactive) | – | 0.728 µM (active)
5 | OC1C2CN3CCN(C2)CC1(c1ccccc1)C3 (stereo unspecified) | – | > 100 µM (inactive) | > 100 µM (inactive) | > 100 µM (inactive) | – | > 100 µM (inactive) | > 100 µM (inactive) | > 100 µM (inactive) | > 100 µM (inactive) | > 100 µM (inactive) | > 100 µM (inactive) | > 100 µM (inactive) | – | – | > 100 µM (inactive)
6 | COc1ccc2nc3c([N+](=O)[O-])ccc(NCCN(C)C)c3c(N)c2c1 | 1.17 µM (inactive) | 1.56 µM (inactive) | 1.91 µM (inactive) | 2.37 µM (inactive) | 1.61 µM (inactive) | 1.09 µM (active) | 1.66 µM (inactive) | – | 1.34 µM (inactive) | 1.82 µM (inactive) | 1.46 µM (inactive) | 1.15 µM (inactive) | 0.695 µM (active) | 1.47 µM (inactive) | 0.234 µM (active)
7 | O=S(=O)(N/N=C1\CC2CCC1C2)c1ccccc1 (stereo unspecified) | – | – | > 100 µM (inactive) | > 100 µM (inactive) | > 100 µM (inactive) | > 100 µM (inactive) | > 100 µM (inactive) | > 100 µM (inactive) | > 100 µM (inactive) | > 100 µM (inactive) | > 100 µM (inactive) | > 100 µM (inactive) | > 100 µM (inactive) | > 100 µM (inactive) | –
8 | COc1ccc(/C=C/C(=N/NC(=O)N/N=C(/C=C/c2ccc(OC)cc2)C(C)(C)CN2CCCCC2)C(C)(C)CN2CCCCC2)cc1 | 1.99 µM (inactive) | 2.28 µM (inactive) | 1.86 µM (inactive) | 1.62 µM (inactive) | 1.98 µM (inactive) | 1.75 µM (inactive) | 1.85 µM (inactive) | – | – | – | 2.28 µM (inactive) | 2.27 µM (inactive) | 1.47 µM (inactive) | 1.65 µM (inactive) | –
9 | N#Cc1nc(COCCOCc2ccc(F)cc2)oc1N | > 100 µM (inactive) | > 100 µM (inactive) | > 100 µM (inactive) | > 100 µM (inactive) | > 100 µM (inactive) | > 100 µM (inactive) | > 100 µM (inactive) | > 100 µM (inactive) | > 100 µM (inactive) | > 100 µM (inactive) | > 100 µM (inactive) | > 100 µM (inactive) | – | > 100 µM (inactive) | > 100 µM (inactive)
10 | COC(=O)CNS(=O)(=O)c1ccc(-c2c3nc(c(-c4ccc(S(=O)(=O)NCC(=O)OC)cc4)c4ccc([nH]4)c(-c4ccc(S(=O)(=O)NCC(=O)OC)cc4)c4nc(c(-c5ccc(S(=O)(=O)NCC(=O)OC)cc5)c5ccc2[nH]5)C=C4)C=C3)cc1 | > 100 µM (inactive) | > 100 µM (inactive) | > 100 µM (inactive) | > 100 µM (inactive) | > 100 µM (inactive) | > 100 µM (inactive) | 82.6 µM (inactive) | > 100 µM (inactive) | > 100 µM (inactive) | 62.2 µM (inactive) | > 100 µM (inactive) | > 100 µM (inactive) | – | > 100 µM (inactive) | 42.2 µM (inactive)
11 | CC(C)(C)OC(=O)CC(NC(=O)OC(C)(C)C)C(=O)NC(C(=O)O)C(O)c1ccccc1 (stereo unspecified) | 80.9 µM (inactive) | > 100 µM (inactive) | > 100 µM (inactive) | > 100 µM (inactive) | 41.7 µM (inactive) | > 100 µM (inactive) | 77.6 µM (inactive) | > 100 µM (inactive) | 50.2 µM (inactive) | 37.5 µM (inactive) | 91.4 µM (inactive) | > 100 µM (inactive) | – | 69.7 µM (inactive) | 65.2 µM (inactive)
12 | CCCNC(=O)NNC(=O)c1c[nH]c2nc(C)ccc2c1=O | > 100 µM (inactive) | – | > 100 µM (inactive) | > 100 µM (inactive) | – | > 100 µM (inactive) | > 100 µM (inactive) | > 100 µM (inactive) | > 100 µM (inactive) | > 100 µM (inactive) | > 100 µM (inactive) | > 100 µM (inactive) | – | > 100 µM (inactive) | > 100 µM (inactive)
13 | O=S(=O)(O)c1cc(/N=N/c2c(O)ccc3ccccc23)cc2c(S(=O)(=O)O)cccc12 | – | > 100 µM (inactive) | > 100 µM (inactive) | > 100 µM (inactive) | > 100 µM (inactive) | > 100 µM (inactive) | > 100 µM (inactive) | > 100 µM (inactive) | > 100 µM (inactive) | > 100 µM (inactive) | > 100 µM (inactive) | > 100 µM (inactive) | > 100 µM (inactive) | > 100 µM (inactive) | > 100 µM (inactive)
14 | Cc1cc2nc3c(C#N)c4c(c(Nc5ccc(Cl)cc5)n3c2cc1C)CCC4 | 30.5 µM (inactive) | 27.1 µM (inactive) | 16 µM (inactive) | – | > 100 µM (inactive) | 20.6 µM (inactive) | 18.9 µM (inactive) | 33.5 µM (inactive) | 18.4 µM (inactive) | – | – | – | 23.6 µM (inactive) | – | 20.8 µM (inactive)
15 | Cc1nc2ccc(F)cc2c2c1CCO2 | 52.6 µM (inactive) | > 100 µM (inactive) | > 100 µM (inactive) | > 100 µM (inactive) | – | > 100 µM (inactive) | 66.2 µM (inactive) | 70.1 µM (inactive) | > 100 µM (inactive) | > 100 µM (inactive) | – | > 100 µM (inactive) | 78.7 µM (inactive) | 61.1 µM (inactive) | 20.1 µM (inactive)
16 | CN(c1ccc(Cl)cc1)S(=O)(=O)c1ccc([N+](=O)[O-])cc1 | > 100 µM (inactive) | > 100 µM (inactive) | > 100 µM (inactive) | > 100 µM (inactive) | > 100 µM (inactive) | > 100 µM (inactive) | > 100 µM (inactive) | > 100 µM (inactive) | > 100 µM (inactive) | > 100 µM (inactive) | > 100 µM (inactive) | > 100 µM (inactive) | – | > 100 µM (inactive) | > 100 µM (inactive)
17 | CN(C)c1ccc(/C=C2\Oc3ccccc3C2=O)cc1 | > 100 µM (inactive) | > 100 µM (inactive) | > 100 µM (inactive) | – | > 100 µM (inactive) | > 100 µM (inactive) | > 100 µM (inactive) | 56.8 µM (inactive) | > 100 µM (inactive) | > 100 µM (inactive) | > 100 µM (inactive) | > 100 µM (inactive) | – | > 100 µM (inactive) | > 100 µM (inactive)
18 | C/C(Cl)=N\OC(=O)Nc1ccc(C)cc1 | 16 µM (inactive) | 18.7 µM (inactive) | 18.7 µM (inactive) | 18.2 µM (inactive) | 17.3 µM (inactive) | 15.7 µM (inactive) | 16.3 µM (inactive) | – | 15.8 µM (inactive) | – | 15.8 µM (inactive) | 16.7 µM (inactive) | 20.7 µM (inactive) | 18.1 µM (inactive) | 20.3 µM (inactive)
19 | N#C/C(=C1/c2cc([N+](=O)[O-])ccc2-c2c1cc([N+](=O)[O-])cc2[N+](=O)[O-])N1CCCCC1 | > 100 µM (inactive) | – | > 100 µM (inactive) | > 100 µM (inactive) | 93.1 µM (inactive) | > 100 µM (inactive) | 71.8 µM (inactive) | > 100 µM (inactive) | > 100 µM (inactive) | 68.4 µM (inactive) | > 100 µM (inactive) | 49.5 µM (inactive) | – | – | > 100 µM (inactive)
20 | Cc1cc(C)n(-c2nc3ccccc3c(=O)n2-c2ccccc2)n1 | > 100 µM (inactive) | > 100 µM (inactive) | > 100 µM (inactive) | 67 µM (inactive) | > 100 µM (inactive) | > 100 µM (inactive) | > 100 µM (inactive) | > 100 µM (inactive) | > 100 µM (inactive) | – | > 100 µM (inactive) | > 100 µM (inactive) | – | > 100 µM (inactive) | > 100 µM (inactive)
21 | CSS(C)(=O)=O | 15.1 µM (inactive) | 20.4 µM (inactive) | 23.9 µM (inactive) | 27.3 µM (inactive) | – | 26.2 µM (inactive) | 37.1 µM (inactive) | 20.2 µM (inactive) | 31.5 µM (inactive) | 19.4 µM (inactive) | 18 µM (inactive) | 23.2 µM (inactive) | – | > 100 µM (inactive) | 30.8 µM (inactive)
